Measurements: paper PMC12202533, “Mechanistic Insights and Anti-cancer Activity of 2H-benzo[b][1,4]oxazin-3(4H)-one Linked 1,2,3-Triazoles in Human Cancer Cells” (Frontiers in Pharmacology, 2025)

Experiments:
BEAS-2B cells = assay: Calcein AM/PI live/dead viability assay, normal lung cells; type: cell-based; conditions: BEAS-2B, 5, 10, 20 μM, 24 h
Description: To investigate the role of 14b and 14c in regulating cell proliferation and death, A549 cells were treated with different concentrations of compounds for 24 h, and the live/dead cell numbers were then observed by staining with calcein AM and propidium iodide.
FIGURE 4 Compound 14b and 14c increased dead cells and decreased live cells. (A–B) A549 cells were treated with different concentrations of 14b and 14c (5 μM, 10 μM, and 20 μM) for 24 h (C–D) BEAS-2B cells were treated with different concentrations of 14b and 14c (5 μM, 10 μM, and 20 μM) for 24 h. Live and dead cell numbers were stained with calcein in AM and PI, respectively, and cells were observed by confocal microscopy. Data are presented as mean ± SEM, *P < 0.05.
The live/dead viability assay was performed using the Calcein/PI Live/Dead Viability Assay Kit. A549 cells were plated at a density of 5 × 10^3 cells per well in a 96-well plate and allowed to adhere overnight. Compounds were then added at concentrations of 0, 5, 10, or 20 μM for 24 h. After replacing the medium with fresh culture medium containing Calcein AM and propidium iodide, the cells were incubated for 30 min at 37°C in the dark. Live and dead cells were observed and photographed using a confocal microscope.

KM mice = assay: Acute toxicity test in mice; type: in vivo; conditions: 800 mg/kg oral gavage; for safety / toxicity in mice: 800 mg/kg
Description: We further evaluated the safety of compound 14b through an acute toxicity study in KM mice. Male and female mice were divided into two groups: a control group and a 14 b-treated group. The treated group received 800 mg/kg of compound 14b via oral gavage, while the control group was given an equivalent volume of solvent. Body weight was monitored over a 15-day period. At the end of the study, blood samples were collected from the retro-orbital sinus to assess the biochemical markers GPT and GOT, and the major organs—heart, liver, spleen, lungs, and kidneys—were weighed and subjected to HE staining.

| Structure (SMILES) | cytotoxicity in normal lung cells (BEAS-2B cells) | HE staining of the major organs (heart, liver, spleen, lungs, and kidneys) (KM mice) | organ indices of the major organs versus control group (KM mice) | safety / toxicity in mice (KM mice) | body weight versus control group (KM mice; 15-day period) | GPT levels (KM mice; blood) | safety / toxicity in mice (KM mice; listed as 14 b) |
| --- | --- | --- | --- | --- | --- | --- | --- |
| O=C1COc2ccc(NC(=O)c3cccc(-c4cn(-c5cccc(Br)c5)nn4)c3)cc2N1 [Compound 14b] | minimal cytotoxicity | no significant histopathological differences | no significant changes | low toxicity | no significant differences | slight but not statistically significant increase | favorable safety profile |
| O=C1COc2ccc(NC(=O)c3cccc(-c4cn(-c5ccccc5F)nn4)c3)cc2N1 [Compound 14c] | minimal cytotoxicity | – | – | – | – | – | – |
